# Data: patent US20250290117A1, “MOLECULAR PHENOTYPIC ANTIMICROBIAL SUSCEPTIBILITY TESTING” (priority 2024, published 2025)
# How the values were obtained:
# Assay type in all cases: cell-based
# [1] = tested on: pathogens of clinical samples; experiment: Molecular phenotypic antimicrobial susceptibility test of clinical samples, extraction DNA purification step prior to PCR (Table 6)
# In short: (§1)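 For direct PCR, exposed cultures are lysed in buffer in the thermal cycler, whereas purified runs first isolate DNA with magnetic beads. Pathogen-specific or universal targets are amplified semi-quantitatively after 12-16 h of antimicrobial exposure in Mueller Hinton Broth.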
# [2] = tested on: pathogens of clinical samples; experiment: Molecular phenotypic antimicrobial susceptibility test of clinical samples, direct PCR without a separate DNA purification step (Table 6)
# In short: as §1
# Escherichia coli = experiment: Traditional culture-based antimicrobial susceptibility test
# In short: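 Susceptibility of each E. coli isolate to each antimicrobial was determined the standard way: pathogens were grown, isolated and then exposed to the agents.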
# [3] = E. coli, clinical sample of r10-r24
# [4] = E. coli, clinical sample of r158-r172
# [5] = K. aerogenes, clinical sample of r136-r150
# [6] = K. pneumoniae, clinical sample of r121-r135
# [7] = M. morganii, clinical sample of r55-r69
# [8] = M. morganii, clinical sample of r70-r84
# [9] = P. mirabilis, clinical sample of r25-r39
# [10] = P. mirabilis, clinical sample of r40-r54
structure (smiles),measurement,setting,value
CO/N=C(\C(=O)N[C@@H]1C(=O)N2C(C(=O)O)=C(CSc3nc(=O)c(=O)[nH]n3C)CS[C@H]12)c1csc(N)n1 [Ceftriaxone],Molecular Antibiotic Susceptibility Result,[1]; [3],Sensitive (Antimicrobial wells with pathogen load detected below the control wells (typically >2 cycle thresholds later) may be reported as Sensitive)
same,Ct,"[1]; E. coli, clinical sample of r10-r24, Ct Control Avg 18.112",26.029
same,Molecular Antibiotic Susceptibility Result,[1]; [4],Sensitive (Antimicrobial wells with pathogen load detected below the control wells (typically >2 cycle thresholds later) may be reported as Sensitive)
same,Ct,"[1]; E. coli, clinical sample of r158-r172, Ct Control Avg 20.146",29.851
same,Molecular Antibiotic Susceptibility Result,[1]; [5],Sensitive (Antimicrobial wells with pathogen load detected below the control wells (typically >2 cycle thresholds later) may be reported as Sensitive)
same,Ct,"[1]; K. aerogenes, clinical sample of r136-r150, Ct Control Avg 19.994",33.124
same,Molecular Antibiotic Susceptibility Result,[1]; [6],Sensitive (Antimicrobial wells with pathogen load detected below the control wells (typically >2 cycle thresholds later) may be reported as Sensitive)
same,Ct,"[1]; K. pneumoniae, clinical sample of r121-r135, Ct Control Avg 24.272",33.145
same,Molecular Antibiotic Susceptibility Result,[1]; [7],Sensitive (Antimicrobial wells with pathogen load detected below the control wells (typically >2 cycle thresholds later) may be reported as Sensitive)
same,Ct,"[1]; M. morganii, clinical sample of r55-r69, Ct Control Avg 28.86",35.749
same,Molecular Antibiotic Susceptibility Result,[1]; [8],Sensitive (Antimicrobial wells with pathogen load detected below the control wells (typically >2 cycle thresholds later) may be reported as Sensitive)
same,Ct,"[1]; M. morganii, clinical sample of r70-r84, Ct Control Avg 27.053",36.141
same,Molecular Antibiotic Susceptibility Result,[1]; [9],Sensitive (Antimicrobial wells with pathogen load detected below the control wells (typically >2 cycle thresholds later) may be reported as Sensitive)
same,Ct,"[1]; P. mirabilis, clinical sample of r25-r39, Ct Control Avg 26.064",29.277
same,Molecular Antibiotic Susceptibility Result,[1]; [10],Sensitive (Antimicrobial wells with pathogen load detected below the control wells (typically >2 cycle thresholds later) may be reported as Sensitive)
same,Ct,"[1]; P. mirabilis, clinical sample of r40-r54, Ct Control Avg 26.987",32.789
same,Molecular Antibiotic Susceptibility Result,[2]; [3],Sensitive (Antimicrobial wells with pathogen load detected below the control wells (typically >2 cycle thresholds later) may be reported as Sensitive)
same,Ct,"[2]; E. coli, clinical sample of r10-r24, Ct control avg 12.97",24.791
same,Molecular Antibiotic Susceptibility Result,[2]; [4],Sensitive (Antimicrobial wells with pathogen load detected below the control wells (typically >2 cycle thresholds later) may be reported as Sensitive)
same,Ct,"[2]; E. coli, clinical sample of r158-r172, Ct control avg 12.894",30.396
same,Molecular Antibiotic Susceptibility Result,[2]; [5],Sensitive (Antimicrobial wells with pathogen load detected below the control wells (typically >2 cycle thresholds later) may be reported as Sensitive)
same,Ct,"[2]; K. aerogenes, clinical sample of r136-r150, Ct control avg 13.854",29.137
same,Molecular Antibiotic Susceptibility Result,[2]; [6],Sensitive (Antimicrobial wells with pathogen load detected below the control wells (typically >2 cycle thresholds later) may be reported as Sensitive)
same,Ct,"[2]; K. pneumoniae, clinical sample of r121-r135, Ct control avg […]",28.004
same,Molecular Antibiotic Susceptibility Result,[2]; [7],Sensitive (Antimicrobial wells with pathogen load detected below the control wells (typically >2 cycle thresholds later) may be reported as Sensitive)
same,Ct,"[2]; M. morganii, clinical sample of r55-r69, Ct control avg 12.09",29.28
same,Molecular Antibiotic Susceptibility Result,[2]; [8],Sensitive (Antimicrobial wells with pathogen load detected below the control wells (typically >2 cycle thresholds later) may be reported as Sensitive)
same,Ct,"[2]; M. morganii, clinical sample of r70-r84, Ct control avg 11.677",28.625
same,Molecular Antibiotic Susceptibility Result,[2]; [9],Sensitive (Antimicrobial wells with pathogen load detected below the control wells (typically >2 cycle thresholds later) may be reported as Sensitive)
same,Ct,"[2]; P. mirabilis, clinical sample of r25-r39, Ct control avg 11.801",22.976
same,Molecular Antibiotic Susceptibility Result,[2]; [10],Sensitive (Antimicrobial wells with pathogen load detected below the control wells (typically >2 cycle thresholds later) may be reported as Sensitive)
same,Ct,"[2]; P. mirabilis, clinical sample of r40-r54, Ct control avg 10.06",28.394
same,Traditional Culture Results,Escherichia coli; E. coli #1 - WDCM 00090 - 6.2×E3,Sensitive
same,Traditional Culture Results,Escherichia coli; E. coli #2 - WDCM 00090 - 6.2×E3,Sensitive
same,Traditional Culture Result,Escherichia coli; E. coli isolate 1 (Table 3),Resistant
same,Traditional Culture Result,Escherichia coli; E. coli isolate 2 (Table 3),Resistant
same,Traditional Culture Result,Escherichia coli; E. coli isolate 3 (Table 3),Resistant
same,Traditional Culture Result,Escherichia coli; E. coli isolate 4 (Table 3),Resistant
same,Traditional Culture Result,Escherichia coli; E. coli isolate 5 (Table 3),Sensitive
same,Traditional Culture Result,Escherichia coli; E. coli isolate JJ1887,Resistant
